Reference: patent US3939266A, “Substituted sulfonylacetamido cephalosporins” (SmithKline Corporation, priority 1974, dated 1976)
Converted amounts (≈) assume the structure as drawn. Read-outs that look alike come from different tables or passages of the source.

Columns and labels:
Format in all cases: cell-based
[1] = tested on: Kleb. pneumo. SK 1200; assay: MIC against Kleb. pneumo. SK 1200
[2] = tested on: Strep. faecalis HH 34358; assay: MIC against Strep. faecalis HH 34358; settings: Enterococcus faecalis, HH34358
[3] = tested on: S. aureus HH 127; assay: MIC against S. aureus HH 127; settings: Staphylococcus aureus, HH127
[4] = tested on: Kleb. pneumo. SK 4200; assay: MIC against Kleb. pneumo. SK 4200
[5] = tested on: E. coli SK 12140; assay: MIC against E. coli SK 12140; settings: Escherichia coli, SK12140
[6] = tested on: E. coli HH 33779; assay: MIC against E. coli HH 33779; settings: Escherichia coli, HH33779
[7] = tested on: Strep. pyog. C 203; assay: MIC against Strep. pyog. C 203
[8] = tested on: S. villaluz; assay: MIC against S. villaluz
[9] = tested on: Entero. aerog. ATCH 13048; assay: MIC against Entero. aerog. ATCH 13048
[10] = tested on: S. aureus SK 23390; assay: MIC against S. aureus SK 23390; settings: Staphylococcus aureus, SK23390
[11] = tested on: Serra. marc. ATCC 13880; assay: MIC against Serra. marc. ATCC 13880
[12] = tested on: Pseudo. sp. HH 63; assay: MIC against Pseudo. sp. HH 63
[13] = tested on: Shigella HH 112; assay: MIC against Shigella HH 112; settings: HH112
[14] = tested on: Salmonella ATCC 12176; assay: MIC against Salmonella ATCC 12176; settings: ATCC12176
[15] = tested on: Entero. cloaca PaSL 969; assay: MIC against Entero. cloaca PaSL 969
[16] = E. coli SK 12140, read-out: MIC
[17] = Salmonella ATCC 12176, read-out: MIC

SMILES	MIC [1] [µg/mL]	MIC [2] [µg/mL]	MIC [3] [µg/mL]	MIC [4] [µg/mL]	MIC [5, 16] [µg/mL]	MIC [6] [µg/mL]	MIC [7] [µg/mL]	MIC [8] [µg/mL]	MIC [9] [µg/mL]	MIC [10] [µg/mL]	MIC [11] [µg/mL]	MIC [12] [µg/mL]	MIC ([13]; Shigella HH 112, read-out: MIC) [µg/mL]	MIC [14, 17] [µg/mL]	MIC [15] [µg/mL]	MIC ([13]; Shigella) [µg/mL]	MIC ([14]; Salmonella) [µg/mL]	MIC [5] [µg/mL]
Cn1c(SCC2=C(C(=O)O)N3C(=O)C(NC(=O)CS(C)(=O)=O)C3SC2)n[nH]c1=O (centres unmarked) [Compound 59857]	6.3 (≈ 13.6 µM)	100 (≈ 216 µM)	1.6 (≈ 3.45 µM)	6.3 (≈ 13.6 µM)	25 (≈ 53.9 µM)	50 (≈ 108 µM)	0.2 (≈ 0.431 µM)	25 (≈ 53.9 µM)	> 200	1.6 (≈ 3.45 µM)	> 200	> 200	25 (≈ 53.9 µM)	3.1 (≈ 6.69 µM)				
CCS(=O)(=O)CC(=O)NC1C(=O)N2C(C(=O)O)=C(COC(C)=O)CSC12 (centres unmarked) [Compound 59623, 7-Ethylsulfonylacetamidocephalosporanic acid]	6.3 (≈ 15.5 µM)	100 (≈ 246 µM)	0.8 (≈ 1.97 µM)	6.3 (≈ 15.5 µM)	25 (≈ 61.5 µM)	50 (≈ 123 µM)	0.1 (≈ 0.246 µM)	100 (≈ 246 µM)	200 (≈ 492 µM)	0.8 (≈ 1.97 µM)	> 200	> 200	25 (≈ 61.5 µM)	3.1 (≈ 7.63 µM)				
Cc1nnc(SCC2=C(C(=O)O)N3C(=O)C(NC(=O)CS(=O)(=O)c4ccccc4)[C@H]3SC2)s1 (some centres unmarked) [Compound 57360, 7-Phenylsulfonylacetamido-3-(2-methyl-1,3,4-thiadiazol-5-ylthiomethyl)-3-cephem-4-carboxylic acid]	12.5 (≈ 23.7 µM)	25 (≈ 47.5 µM)	0.8 (≈ 1.52 µM)	25 (≈ 47.5 µM)	25 (≈ 47.5 µM)	100 (≈ 190 µM)	0.1 (≈ 0.19 µM)		> 200	0.4 (≈ 0.76 µM)	> 200	> 200	25 (≈ 47.5 µM)	25 (≈ 47.5 µM)	> 200			
Cn1nnnc1SCC1=C(C(=O)O)N2C(=O)C(NC(=O)CS(C)(=O)=O)[C@H]2SC1 (some centres unmarked) [Compound 57286, 7-Methylsulfonylacetamido-3-(1-methyltetrazol-5-ylthiomethyl)-3-cephem-4-carboxylic acid]	3.1 (≈ 6.91 µM)	100 (≈ 223 µM)	3.1 (≈ 6.91 µM)	1.6 (≈ 3.57 µM)	3.1 (≈ 6.91 µM)	12.5 (≈ 27.9 µM)	0.2 (≈ 0.446 µM)		> 200	1.6 (≈ 3.57 µM)	> 200	> 200	3.1 (≈ 6.91 µM)	3.1 (≈ 6.91 µM)	> 200			
CC1=C(C(=O)O)N2C(=O)C(NC(=O)CS(C)(=O)=O)[C@H]2SC1 (some centres unmarked) [Compound 59454, 7-Methylsulfonylacetamido-3-methyl-3-cephem-4-carboxylic acid]	> 200	> 200	25 (≈ 74.8 µM)	> 200	> 200	> 200	0.4 (≈ 1.2 µM)	> 200	> 200	25 (≈ 74.8 µM)	> 200	> 200	> 200	> 200	> 200			
Cn1cnnc1SCC1=C(C(=O)O)N2C(=O)C(NC(=O)CS(C)(=O)=O)C2SC1 (centres unmarked) [Compound 59758]	6.3 (≈ 14.1 µM)	200 (≈ 447 µM)	3.1 (≈ 6.93 µM)	6.3 (≈ 14.1 µM)	6.3 (≈ 14.1 µM)	12.5 (≈ 27.9 µM)	0.1 (≈ 0.223 µM)	50 (≈ 112 µM)	> 200	1.6 (≈ 3.58 µM)	> 200	> 200				0.1 (≈ 0.223 µM)	3.1 (≈ 6.93 µM)	
CS(=O)(=O)CC(=O)NC1C(=O)N2C(C(=O)[O-])=C(C[n+]3ccccc3)CSC12 (centres unmarked) [Compound 59345, 7-Methylsulfonylacetamido-3-(1-pyridiniummethyl)-3-cephem-4-carboxylic acid]	100 (≈ 243 µM)	100 (≈ 243 µM)	0.8 (≈ 1.94 µM)	50 (≈ 122 µM)	100 (≈ 243 µM)	100 (≈ 243 µM)	0.1 (≈ 0.243 µM)	25 (≈ 60.8 µM)	> 200	0.8 (≈ 1.94 µM)	> 200	> 200	50 (≈ 122 µM)	50 (≈ 122 µM)	> 200			
Cc1nc(SCC2=C(C(=O)O)N3C(=O)C(NC(=O)CS(C)(=O)=O)C3SC2)n[nH]1 (centres unmarked) [Compound 59586]	3.1 (≈ 6.93 µM)	100 (≈ 223 µM)	1.6 (≈ 3.58 µM)	3.1 (≈ 6.93 µM)	6.3 (≈ 14.1 µM)	25 (≈ 55.9 µM)	0.2 (≈ 0.447 µM)	100 (≈ 223 µM)	200 (≈ 447 µM)	0.8 (≈ 1.79 µM)	> 200	> 200	12.5 (≈ 27.9 µM)	1.6 (≈ 3.58 µM)	> 200			
CC(=O)OCC1=C(C(=O)O)N2C(=O)C(NC(=O)CS(C)(=O)=O)C2SC1 (centres unmarked) [Compound 54293, 7-Methylsulfonylacetamidocephalosporanic acid]	12.5 (≈ 31.9 µM)	200 (≈ 510 µM)	3.1 (≈ 7.9 µM)	12.5 (≈ 31.9 µM)	12.5 (≈ 31.9 µM)	25 (≈ 63.7 µM)	0.4 (≈ 1.02 µM)		> 200	1.6 (≈ 4.08 µM)		> 200	25 (≈ 63.7 µM)	12.5 (≈ 31.9 µM)	> 200			
CC(=O)OCC1=C(C(=O)O)N2C(=O)C(NC(=O)CS(N)(=O)=O)C2SC1 (centres unmarked) [Compound 59393, 7-Aminosulfonylacetamidocephalosporanic acid]	25 (≈ 63.5 µM)	50 (≈ 127 µM)	1.6 (≈ 4.07 µM)	25 (≈ 63.5 µM)	50 (≈ 127 µM)	50 (≈ 127 µM)	0.1 (≈ 0.254 µM)		200 (≈ 508 µM)	1.6 (≈ 4.07 µM)	> 200	> 200	25 (≈ 63.5 µM)	12.5 (≈ 31.8 µM)	100 (≈ 254 µM)			
Cc1nnc(SCC2=C(C(=O)O)N3C(=O)C(NC(=O)CS(C)(=O)=O)[C@H]3SC2)s1 (some centres unmarked) [Compound 55848, 7-Methylsulfonylacetamido-3-(2-methyl-1,3,4-thiadiazol-5-ylthiomethyl)-3-cephem-4-carboxylic acid]	6.3 (≈ 13.6 µM)	50 (≈ 108 µM)	1.6 (≈ 3.44 µM)	3.1 (≈ 6.67 µM)		25 (≈ 53.8 µM)	0.2 (≈ 0.431 µM)		> 200	1.6 (≈ 3.44 µM)		> 200	12.5 (≈ 26.9 µM)	3.1 (≈ 6.67 µM)	> 200			12.5 (≈ 26.9 µM)
CCS(=O)(=O)CC(=O)NC1C(=O)N2C(C(=O)O)=C(CSc3nnc(C)s3)CSC12 (centres unmarked) [Compound 59641, 7-Ethyldulfonylacetamido-3-(2-methyl-1,3,5-thiadiazol-5-yl-thiomethyl)-3-cephem-4-carboxylic acid]	1.6 (≈ 3.34 µM)	25 (≈ 52.2 µM)	0.4 (≈ 0.836 µM)	1.6 (≈ 3.34 µM)	3.1 (≈ 6.48 µM)	12.5 (≈ 26.1 µM)	0.1 (≈ 0.209 µM)		100 (≈ 209 µM)	0.4 (≈ 0.836 µM)	> 200	> 200	6.3 (≈ 13.2 µM)	1.6 (≈ 3.34 µM)				
CC(=O)OCC1=C(C(=O)O)N2C(=O)C(NC(=O)CS(=O)(=O)c3ccccc3)C2SC1 (centres unmarked) [Compound 57359, 7-Phenylsulfonylacetamidocephalosporanic acid]	6.3 (≈ 13.9 µM)	50 (≈ 110 µM)	1.6 (≈ 3.52 µM)	12.5 (≈ 27.5 µM)	50 (≈ 110 µM)	100 (≈ 220 µM)	0.2 (≈ 0.44 µM)		> 200	0.8 (≈ 1.76 µM)	> 200	> 200	25 (≈ 55 µM)	12.5 (≈ 27.5 µM)	> 200			
